Data reported in ChEMBL document CHEMBL3885861, “Open TG-GATES”.

Species: Rattus norvegicus
Test: Open TG-GATES - Regimen: Daily Repeat
Assay type: toxicity, organism-based, Sprague-Dawley
Parameters: regimen Daily Repeat, gender Male, age 6 weeks
Conditions: in vivo, po, route gavage; for APTT / Bas / Eos / Fbg / Hb / Ht / Lym / MCH / MCHC / MCV / Mono / Neu / PT / Plat / RBC / Ret / WBC: tissue Blood; for KIDNEY_L / KIDNEY_R / KIDNEY_TOTAL: tissue Kidney; for LIVER: tissue Liver; for A/G / ALP / ALT / AST / BUN / CRE / Ca / Cl / DBIL / GLC / IP / K / LDH / Na / PL / RALB / TBIL / TC / TG / TP / gamma-GTP: tissue Plasma
[1] = 150 mg/kg, 72 h, dose level Middle, time 3 day
[2] = 150 mg/kg, […], dose level Middle, time 7 day
[3] = 150 mg/kg, […], dose level Middle, time 14 day
[4] = 150 mg/kg, […], dose level Middle, time 28 day
[5] = 500 mg/kg, 72 h, dose level High, time 3 day
[6] = 500 mg/kg, […], dose level High, time 7 day
[7] = 500 mg/kg, […], dose level High, time 14 day
[8] = 500 mg/kg, […], dose level High, time 28 day

CC(=O)Oc1cc(C(C)C)c(OCCN(C)C)cc1C [MOXISYLYTE]
TERMINAL_BW [1]: 223.4 g
APTT [1]: 20.6 s
Bas [1]: 0%
Eos [1]: 1%
Fbg [1]: 313 mg/dL
Hb [1]: 14.1 g/dL
Ht [1]: 40.5%
Lym [1]: 78%
MCH [1]: 21.3 pg
MCHC [1]: 34.8%
MCV [1]: 61.2 fL
Mono [1]: 2.4%
Neu [1]: 17.6%
PT [1]: 16.2 s
Plat [1]: 113.1 x10_4/uL
RBC [1]: 663.6 x10_4/ul
Ret [1]: 6.3%
WBC [1]: 91.7 x10_2/uL
KIDNEY_L [1]: 1 g
KIDNEY_R [1]: 1 g
KIDNEY_TOTAL [1]: 2 g
LIVER [1]: 9.7 g
A/G [1]: 1.3
ALP [1]: 1491.8 IU/L
ALT [1]: 42.6 IU/L
AST [1]: 75.6 IU/L
BUN [1]: 16.4 mg/dL
CRE [1]: 0.1 mg/dL
Ca [1]: 10.8 mg/dL
Cl [1]: 106.6 meq/L
DBIL [1]: 0.01 mg/dL
GLC [1]: 176.8 mg/dL
IP [1]: 7.4 mg/dL
K [1]: 4.2 meq/L
LDH [1]: 242.8 IU/L
Na [1]: 142.6 meq/L
PL [1]: 159.8 mg/dL
RALB [1]: 3.3 g/dL
TBIL [1]: 0.008 mg/dL
TC [1]: 74.4 mg/dL
TG [1]: 140.6 mg/dL
TP [1]: 5.8 g/dL
gamma-GTP [1]: 1 IU/L
TERMINAL_BW [2]: 265.4 g
TERMINAL_BW [3]: 312.1 g
TERMINAL_BW [4]: 361.5 g
APTT [2]: 22.3 s
Bas [2]: 0%
Eos [2]: 0.6%
Fbg [2]: 318.2 mg/dL
Hb [2]: 13.4 g/dL
Ht [2]: 38.8%
Lym [2]: 81.4%
MCH [2]: 21.1 pg
MCHC [2]: 34.6%
MCV [2]: 61.2 fL
Mono [2]: 2.2%
Neu [2]: 15.2%
PT [2]: 15.3 s
Plat [2]: 113.7 x10_4/uL
RBC [2]: 633.2 x10_4/ul
Ret [2]: 6.1%
WBC [2]: 110.8 x10_2/uL
APTT [3]: 21.8 s
Bas [3]: 0%
Eos [3]: 1.2%
Fbg [3]: 310.8 mg/dL
Hb [3]: 14.5 g/dL
Ht [3]: 40%
Lym [3]: 76.4%
MCH [3]: 20.9 pg
MCHC [3]: 36.3%
MCV [3]: 57.8 fL
Mono [3]: 2.6%
Neu [3]: 19%
PT [3]: 15.9 s
Plat [3]: 117.3 x10_4/uL
RBC [3]: 692.8 x10_4/ul
Ret [3]: 4.9%
WBC [3]: 125.2 x10_2/uL
APTT [4]: 22.5 s
Bas [4]: 0%
Eos [4]: 1%
Fbg [4]: 323.6 mg/dL
Hb [4]: 15.1 g/dL
Ht [4]: 42.5%
Lym [4]: 81.6%
MCH [4]: 19 pg
MCHC [4]: 35.4%
MCV [4]: 53.5 fL
Mono [4]: 2.4%
Neu [4]: 14.2%
PT [4]: 15.6 s
Plat [4]: 92.2 x10_4/uL
RBC [4]: 793.6 x10_4/ul
Ret [4]: 2.7%
WBC [4]: 166.9 x10_2/uL
KIDNEY_L [2]: 1.1 g
KIDNEY_R [2]: 1.2 g
KIDNEY_TOTAL [2]: 2.3 g
KIDNEY_L [3]: 1.2 g
KIDNEY_R [3]: 1.3 g
KIDNEY_TOTAL [3]: 2.6 g
KIDNEY_L [4]: 1.4 g
KIDNEY_R [4]: 1.4 g
KIDNEY_TOTAL [4]: 2.8 g
LIVER [2]: 12.3 g
LIVER [3]: 13.7 g
LIVER [4]: 14.2 g
A/G [2]: 1.3
ALP [2]: 1576.8 IU/L
ALT [2]: 43.4 IU/L
AST [2]: 77.8 IU/L
BUN [2]: 17.2 mg/dL
CRE [2]: 0.2 mg/dL
Ca [2]: 10.6 mg/dL
Cl [2]: 106 meq/L
DBIL [2]: 0 mg/dL
GLC [2]: 192.2 mg/dL
IP [2]: 7.2 mg/dL
K [2]: 4.3 meq/L
LDH [2]: 192.2 IU/L
Na [2]: 141.4 meq/L
PL [2]: 155.4 mg/dL
RALB [2]: 3.1 g/dL
TBIL [2]: 0.006 mg/dL
TC [2]: 75.6 mg/dL
TG [2]: 147.6 mg/dL
TP [2]: 5.5 g/dL
gamma-GTP [2]: 1.4 IU/L
A/G [3]: 1.2
ALP [3]: 1330.2 IU/L
ALT [3]: 44.6 IU/L
AST [3]: 79.2 IU/L
BUN [3]: 18.8 mg/dL
CRE [3]: 0.2 mg/dL
Ca [3]: 10.6 mg/dL
Cl [3]: 107.4 meq/L
DBIL [3]: 0 mg/dL
GLC [3]: 173.2 mg/dL
IP [3]: 6 mg/dL
K [3]: 4.2 meq/L
LDH [3]: 181.2 IU/L
Na [3]: 141 meq/L
PL [3]: 146.2 mg/dL
RALB [3]: 3.1 g/dL
TBIL [3]: 0 mg/dL
TC [3]: 76.2 mg/dL
TG [3]: 151.4 mg/dL
TP [3]: 5.7 g/dL
gamma-GTP [3]: 1 IU/L
A/G [4]: 1
ALP [4]: 1105.4 IU/L
ALT [4]: 41 IU/L
AST [4]: 70.4 IU/L
BUN [4]: 17.4 mg/dL
CRE [4]: 0.2 mg/dL
Ca [4]: 10.4 mg/dL
Cl [4]: 107 meq/L
DBIL [4]: 0.002 mg/dL
GLC [4]: 188.2 mg/dL
IP [4]: 6.1 mg/dL
K [4]: 4.1 meq/L
LDH [4]: 137 IU/L
Na [4]: 141.8 meq/L
PL [4]: 143 mg/dL
RALB [4]: 3.1 g/dL
TBIL [4]: 0.006 mg/dL
TC [4]: 71.4 mg/dL
TG [4]: 150.4 mg/dL
TP [4]: 6 g/dL
gamma-GTP [4]: 2.2 IU/L
TERMINAL_BW [5]: 224 g
APTT [5]: 20.8 s
Bas [5]: 0%
Eos [5]: 1%
Fbg [5]: 325 mg/dL
Hb [5]: 14.2 g/dL
Ht [5]: 40.8%
Lym [5]: 76%
MCH [5]: 21.2 pg
MCHC [5]: 34.8%
MCV [5]: 61 fL
Mono [5]: 2.8%
Neu [5]: 20%
PT [5]: 15.7 s
Plat [5]: 118.1 x10_4/uL
RBC [5]: 669.4 x10_4/ul
Ret [5]: 6.3%
WBC [5]: 95.6 x10_2/uL
KIDNEY_L [5]: 1 g
KIDNEY_R [5]: 1 g
KIDNEY_TOTAL [5]: 2 g
LIVER [5]: 10.7 g
A/G [5]: 1.3
ALP [5]: 1492.8 IU/L
ALT [5]: 46.6 IU/L
AST [5]: 77.6 IU/L
BUN [5]: 17.6 mg/dL
CRE [5]: 0.2 mg/dL
Ca [5]: 10.9 mg/dL
Cl [5]: 106.4 meq/L
DBIL [5]: 0.004 mg/dL
GLC [5]: 176.4 mg/dL
IP [5]: 7.6 mg/dL
K [5]: 4.4 meq/L
LDH [5]: 244.2 IU/L
Na [5]: 142.6 meq/L
PL [5]: 177.6 mg/dL
RALB [5]: 3.2 g/dL
TBIL [5]: 0.012 mg/dL
TC [5]: 92.2 mg/dL
TG [5]: 118.6 mg/dL
TP [5]: 5.8 g/dL
gamma-GTP [5]: 1.2 IU/L
TERMINAL_BW [6]: 243.1 g
TERMINAL_BW [7]: 311.5 g
TERMINAL_BW [8]: 377.7 g
APTT [6]: 21.5 s
Bas [6]: 0%
Eos [6]: 0.8%
Fbg [6]: 317.8 mg/dL
Hb [6]: 13.6 g/dL
Ht [6]: 38.5%
Lym [6]: 76.6%
MCH [6]: 21 pg
MCHC [6]: 35.3%
MCV [6]: 59.4 fL
Mono [6]: 2.4%
Neu [6]: 19.6%
PT [6]: 15.4 s
Plat [6]: 118.7 x10_4/uL
RBC [6]: 649.6 x10_4/ul
Ret [6]: 4.8%
WBC [6]: 113.3 x10_2/uL
APTT [7]: 22.2 s
Bas [7]: 0%
Eos [7]: 1%
Fbg [7]: 314.8 mg/dL
Hb [7]: 14.6 g/dL
Ht [7]: 39.8%
Lym [7]: 74.4%
MCH [7]: 21.2 pg
MCHC [7]: 36.7%
MCV [7]: 57.9 fL
Mono [7]: 2.2%
Neu [7]: 21.6%
PT [7]: 15.8 s
Plat [7]: 122.7 x10_4/uL
RBC [7]: 688.2 x10_4/ul
Ret [7]: 5%
WBC [7]: 116.2 x10_2/uL
APTT [8]: 21.9 s
Bas [8]: 0%
Eos [8]: 1.2%
Fbg [8]: 311 mg/dL
Hb [8]: 15 g/dL
Ht [8]: 42.8%
Lym [8]: 79.2%
MCH [8]: 18.7 pg
MCHC [8]: 35.1%
MCV [8]: 53.3 fL
Mono [8]: 1.6%
Neu [8]: 17.4%
PT [8]: 15.3 s
Plat [8]: 105.2 x10_4/uL
RBC [8]: 802.6 x10_4/ul
Ret [8]: 2.9%
WBC [8]: 118.3 x10_2/uL
KIDNEY_L [6]: 1.1 g
KIDNEY_R [6]: 1.1 g
KIDNEY_TOTAL [6]: 2.1 g
KIDNEY_L [7]: 1.2 g
KIDNEY_R [7]: 1.3 g
KIDNEY_TOTAL [7]: 2.5 g
KIDNEY_L [8]: 1.4 g
KIDNEY_R [8]: 1.4 g
KIDNEY_TOTAL [8]: 2.8 g
LIVER [6]: 11.2 g
LIVER [7]: 14.8 g
LIVER [8]: 15.5 g
A/G [6]: 1.3
ALP [6]: 1348.8 IU/L
ALT [6]: 46.2 IU/L
AST [6]: 74.8 IU/L
BUN [6]: 19 mg/dL
CRE [6]: 0.2 mg/dL
Ca [6]: 10.6 mg/dL
Cl [6]: 105.8 meq/L
DBIL [6]: 0 mg/dL
GLC [6]: 168.8 mg/dL
IP [6]: 6.7 mg/dL
K [6]: 4.1 meq/L
LDH [6]: 205.6 IU/L
Na [6]: 141.6 meq/L
PL [6]: 169.8 mg/dL
RALB [6]: 3.1 g/dL
TBIL [6]: 0.012 mg/dL
TC [6]: 86.4 mg/dL
TG [6]: 120.8 mg/dL
TP [6]: 5.5 g/dL
gamma-GTP [6]: 1.4 IU/L
A/G [7]: 1.2
ALP [7]: 1394 IU/L
ALT [7]: 43.6 IU/L
AST [7]: 69.2 IU/L
BUN [7]: 17.4 mg/dL
CRE [7]: 0.2 mg/dL
Ca [7]: 10.6 mg/dL
Cl [7]: 104.6 meq/L
DBIL [7]: 0 mg/dL
GLC [7]: 179.4 mg/dL
IP [7]: 6.7 mg/dL
K [7]: 3.7 meq/L
LDH [7]: 123.6 IU/L
Na [7]: 141.4 meq/L
PL [7]: 171 mg/dL
RALB [7]: 3.2 g/dL
TBIL [7]: 0.006 mg/dL
TC [7]: 83.2 mg/dL
TG [7]: 190 mg/dL
TP [7]: 5.8 g/dL
gamma-GTP [7]: 1 IU/L
A/G [8]: 1.1
ALP [8]: 1129.4 IU/L
ALT [8]: 47.6 IU/L
AST [8]: 69.8 IU/L
BUN [8]: 17.6 mg/dL
CRE [8]: 0.2 mg/dL
Ca [8]: 10.7 mg/dL
Cl [8]: 106 meq/L
DBIL [8]: 0.004 mg/dL
GLC [8]: 189 mg/dL
IP [8]: 6.4 mg/dL
K [8]: 4.1 meq/L
LDH [8]: 151.2 IU/L
Na [8]: 142.2 meq/L
PL [8]: 173.6 mg/dL
RALB [8]: 3.2 g/dL
TBIL [8]: 0.008 mg/dL
TC [8]: 87 mg/dL
TG [8]: 152.2 mg/dL
TP [8]: 6.2 g/dL
gamma-GTP [8]: 2 IU/L
